Reference: the supplement of paper PMC11061612

What was measured:
MK-2206 = compound: NC1(c2ccc(-c3nc4ccn5c(=O)[nH]nc5c4cc3-c3ccccc3)cc2)CCC1 [MK-2206]; conditions: max 10 µM
In short: (§1)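 Cancer cell lines were seeded into 1536-well plates in 7.5 μl medium (DMEM/F12 or RPMI, 10% FBS), held 24 hours at 37°C and 5% CO2, and dosed for 72 hours with final DMSO typically 0.2%. Luminescence from CellTiter-Glo 2.0, scaled between blank-well and DMSO-well means, served as viability. The single-agent IC50 was obtained from dose-response fits with a non-linear mixed effects model, each fit being a two-parameter logistic curve.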

AZD2811 = compound: CCN(CCO)CCCOc1ccc2c(Nc3cc(CC(=O)Nc4cccc(F)c4)[nH]n3)ncnc2c1 [AZD2811]; conditions: max 1 µM
In short: as §1

AZD5991 = compound: Cc1c2c(nn1C)CSCc1cc(n(C)n1)CSc1cc(c3ccccc3c1)OCCCc1c(C(=O)O)n(C)c3c-2c(Cl)ccc13 [AZD5991]; conditions: max 1 µM
In short: as §1

Gefitinib = compound: COc1cc2ncnc(Nc3ccc(F)c(Cl)c3)c2cc1OCCCN1CCOCC1 [Gefitinib]; conditions: max 10 µM
In short: as §1

AZD5153 = compound: COc1nnc2ccc(N3CCC(c4ccc(OCCN5CCN(C)C(=O)[C@H]5C)cc4)CC3)nn12 [AZD5153]; conditions: max 1 µM
In short: as §1

SN-38 = compound: CCc1c2c(nc3ccc(O)cc13)-c1cc3c(c(=O)n1C2)COC(=O)[C@]3(O)CC [SN-38]; conditions: max 0.3 µM
In short: as §1

Lapatinib = compound: CS(=O)(=O)CCNCc1ccc(-c2ccc3ncnc(Nc4ccc(OCc5cccc(F)c5)c(Cl)c4)c3c2)o1 [Lapatinib]; conditions: max 10 µM
In short: as §1

Prexasertib = compound: COc1cccc(OCCCN)c1-c1cc(Nc2cnc(C#N)cn2)n[nH]1 [Prexasertib]; conditions: max 1 µM
In short: as §1

Doxorubicin = compound: COc1cccc2c1C(=O)c1c(O)c3c(c(O)c1C2=O)C[C@@](O)(C(=O)CO)C[C@@H]3O[C@H]1C[C@H](N)[C@H](O)[C@H](C)O1 [Doxorubicin]; conditions: max 1 µM
In short: as §1

AZD7648 = compound: Cc1cc2ncnn2cc1Nc1ncc2c(n1)n(C1CCOCC1)c(=O)n2C [AZD7648]; conditions: max 10 µM
In short: as §1

5-Fluorouracil = compound: O=c1[nH]cc(F)c(=O)[nH]1 [5-Fluorouracil]; conditions: max 20 µM
In short: as §1

SRA737 = compound: N#Cc1cnc(Nc2cc(NC[C@H]3CNCCO3)c(C(F)(F)F)cn2)cn1 [SRA737]; conditions: max 10 µM
In short: as §1

[1] = compound: O=C(Nc1ccc2[nH]nc(-c3ccncc3)c2c1)[C@@H]1CCN(CC(=O)N2CCN(c3ccc(-c4ncccn4)cc3)CC2)C1; conditions: max 5 µM
In short: as §1

Gemcitabine = compound: Nc1ccn([C@@H]2O[C@H](CO)[C@@H](O)C2(F)F)c(=O)n1 [Gemcitabine]; conditions: max 0.3 µM
In short: as §1

Venetoclax = compound: CC1(C)CCC(CN2CCN(c3ccc(C(=O)NS(=O)(=O)c4ccc(NCC5CCOCC5)c([N+](=O)[O-])c4)c(Oc4cnc5[nH]ccc5c4)c3)CC2)=C(c2ccc(Cl)cc2)C1 [Venetoclax]; conditions: max 1 µM
In short: as §1

Dasatinib = compound: CC1=C(C(=CC=C1)Cl)NC(=O)C2=CN=C(S2)NC3=CC(=NC(=N3)C)N4CCN(CC4)CCO [Dasatinib]; conditions: max 2 µM
In short: as §1

Crizotinib = compound: C[C@@H](Oc1cc(-c2cnn(C3CCNCC3)c2)cnc1N)c1c(Cl)ccc(F)c1Cl [Crizotinib]; conditions: max 10 µM
In short: as §1

Paclitaxel = compound: CC(=O)O[C@H]1C(=O)[C@@]2(C)[C@H]([C@H](OC(=O)c3ccccc3)[C@]3(O)C[C@H](OC(=O)[C@H](O)[C@@H](NC(=O)c4ccccc4)c4ccccc4)C(C)=C1C3(C)C)[C@]1(OC(C)=O)CO[C@@H]1C[C@@H]2O [Paclitaxel]; conditions: max 3 µM
In short: as §1

AZD6738 = compound: C[C@@H]1COCCN1C2=NC(=NC(=C2)C3(CC3)[S@](=N)(=O)C)C4=C5C=CNC5=NC=C4 [AZD6738]; conditions: max 10 µM
In short: as §1

Taselisib = compound: Cc1nc(-c2cn3c(n2)-c2ccc(-c4cnn(C(C)(C)C(N)=O)c4)cc2OCC3)n(C(C)C)n1 [Taselisib]; conditions: max 10 µM
In short: as §1

Etoposide = compound: COc1cc([C@@H]2c3cc4c(cc3[C@@H](O[C@@H]3O[C@@H]5CO[C@@H](C)O[C@H]5[C@H](O)[C@H]3O)[C@H]3COC(=O)[C@H]23)OCO4)cc(OC)c1O [Etoposide]; conditions: max 10 µM
In short: as §1

AZD4320 = compound: CN(CC[C@H](CSC1=CC=CC=C1)NC2=C(C=C(C=C2)S(=O)(=O)NC(=O)C3=CC=C(C=C3)N4CCC(CC4)[C@H](C5=CC=CC=C5C6=CC=C(C=C6)Cl)O)S(=O)(=O)C(F)(F)F)CCO [AZD4320]; conditions: max 1 µM
In short: as §1

AZD0156 = compound: CN(C)CCCOc1ccc(-c2ccc3ncc4c(c3c2)n(C2CCOCC2)c(=O)n4C)cn1 [AZD0156]; conditions: max 3 µM
In short: as §1

Savolitinib = compound: C[C@@H](c1ccc2nccn2c1)n1nnc2ncc(-c3cnn(C)c3)nc21 [Savolitinib]; conditions: max 1 µM
In short: as §1

Selumetinib = compound: Cn1cnc2c(F)c(Nc3ccc(Br)cc3Cl)c(C(=O)NOCCO)cc21 [Selumetinib]; conditions: max 10 µM
In short: as §1

AZD5363 = compound: C1CN(CCC1(C(=O)N[C@@H](CCO)C2=CC=C(C=C2)Cl)N)C3=NC=NC4=C3C=CN4 [AZD5363]; conditions: max 10 µM
In short: as §1

Alisertib = compound: COc1cc(Nc2ncc3c(n2)-c2ccc(Cl)cc2C(c2c(F)cccc2OC)=NC3)ccc1C(=O)O [Alisertib]; conditions: max 10 µM
In short: as §1

SG3199 = compound: CC1=CN2[C@@H](C1)C=NC3=CC(=C(C=C3C2=O)OC)OCCCCCOC4=C(C=C5C(=C4)N=C[C@@H]6CC(=CN6C5=O)C)OC [SG3199]; conditions: max 0.001 µM
In short: as §1

AZD1390 = compound: CC(C)n1c(=O)n(C)c2cnc3cc(F)c(-c4ccc(OCCCN5CCCCC5)nc4)cc3c21 [AZD1390]; conditions: max 0.3 µM
In short: as §1

Trametinib = compound: CC(=O)Nc1cccc(-n2c(=O)n(C3CC3)c(=O)c3c(Nc4ccc(I)cc4F)n(C)c(=O)c(C)c32)c1 [Trametinib]; conditions: max 1 µM
In short: as §1

Palbociclib = compound: CC(=O)c1c(C)c2cnc(Nc3ccc(N4CCNCC4)cn3)nc2n(C2CCCC2)c1=O [Palbociclib]; conditions: max 10 µM
In short: as §1

AZD8186 = compound: C[C@@H](Nc1cc(F)cc(F)c1)c1cc(C(=O)N(C)C)cc2c(=O)cc(N3CCOCC3)oc12 [AZD8186]
In short: as §1

Carboplatin = compound: C1CC(C1)(C(=O)[O-])C(=O)[O-].N.N.[Pt+2] [Carboplatin]; conditions: max 10 µM
In short: as §1

AZD1775 = compound: C=CCn1c(=O)c2cnc(Nc3ccc(N4CCN(C)CC4)cc3)nc2n1-c1cccc(C(C)(C)O)n1 [AZD1775]; conditions: max 3 µM
In short: as §1

Olaparib = compound: O=C(c1cc(Cc2n[nH]c(=O)c3ccccc23)ccc1F)N1CCN(C(=O)C2CC2)CC1 [Olaparib]; conditions: max 10 µM
In short: as §1

Capivasertib = compound: C1CN(CCC1(C(=O)N[C@@H](CCO)C2=CC=C(C=C2)Cl)N)C3=NC=NC4=C3C=CN4 [Capivasertib]; conditions: max 10 µM
In short: as §1

Cell Line	IC50, cell viability 72 h (MK-2206) [µM]	IC50, cell viability 72 h (AZD2811) [µM]	IC50, cell viability 72 h (AZD5991) [µM]	IC50, cell viability 72 h (Gefitinib) [µM]	IC50, cell viability 72 h (AZD5153) [µM]	IC50, cell viability 72 h (SN-38) [µM]	IC50, cell viability 72 h (Lapatinib) [µM]	IC50, cell viability 72 h (Prexasertib) [µM]	IC50, cell viability 72 h (Doxorubicin) [µM]	IC50, cell viability 72 h (AZD7648) [µM]	IC50, cell viability 72 h (5-Fluorouracil) [µM]	IC50, cell viability 72 h (SRA737) [µM]	IC50, cell viability 72 h [1] [µM]	IC50, cell viability 72 h (Gemcitabine) [µM]	IC50, cell viability 72 h (Venetoclax) [µM]	IC50, cell viability 72 h (Dasatinib) [µM]	IC50, cell viability 72 h (Crizotinib) [µM]	IC50, cell viability 72 h (Paclitaxel) [µM]	IC50, cell viability 72 h (AZD6738) [µM]	IC50, cell viability 72 h (Taselisib) [µM]	IC50, cell viability 72 h (Etoposide) [µM]	IC50, cell viability 72 h (AZD4320) [µM]	IC50, cell viability 72 h (AZD0156) [µM]	IC50, cell viability 72 h (Savolitinib) [µM]	IC50, cell viability 72 h (Selumetinib) [µM]	IC50, cell viability 72 h (AZD5363) [µM]	IC50, cell viability 72 h (Alisertib) [µM]	IC50, cell viability 72 h (SG3199) [µM]	IC50, cell viability 72 h (AZD1390) [µM]	IC50, cell viability 72 h (Trametinib) [µM]	IC50, cell viability 72 h (Palbociclib) [µM]	IC50, cell viability 72 h (AZD8186; max 10 µM) [µM]	IC50, cell viability 72 h (Carboplatin) [µM]	IC50, cell viability 72 h (AZD1775) [µM]	IC50, cell viability 72 h (Olaparib) [µM]	IC50, cell viability 72 h (Capivasertib) [µM]	IC50, cell viability 72 h (AZD8186; max 3 µM) [µM]
DMS-114 (Small Cell Lung Carcinoma)	> 10	> 1	0.782	> 10	0.688	0.23	> 10	> 1	> 1	> 10	> 20	> 10	> 5	> 0.3	> 1	> 2	> 10	0.132	> 10	5.19	> 10	> 1	> 3	> 1	> 10	> 10	> 10	> 0.001	> 0.3	> 1	> 10	> 10	> 10	> 3	> 10		
H9 (T-Cell Non-Hodgkin's Lymphoma)	0.818	0.026	0.413	7.12	0.00623	0.00662	9.54	0.00726	0.0838	> 10					> 1	> 2	2.36		1.31	> 10		0.142	> 3	> 1	0.0536		0.115	> 0.001	> 0.3	0.00271	> 10			0.416	> 10	3.07	> 3
IM-95 (Gastric Carcinoma)	> 10	> 1	0.276	> 10	> 1	> 0.3	> 10	> 1	> 1	> 10					> 1	> 2	> 10		> 10	7.24		0.398	> 3	> 1	> 10		> 10	> 0.001	> 0.3	> 1	> 10			> 3	> 10	> 10	> 3
